# Test system: CT26 colon tumor
# Test: Anti-cancer activity in CT26 tumor-bearing BALB/c mice
# Format: in vivo, mouse
# Settings: anti-PD-1 10 mg/kg, chidamide 50 mg/kg, metformin 100 mg/kg
# Procedure: Animal research was approved and overseen by The Taipei Medical University Institutional Animal Care and Use Committee (TMU IACUC). Six- to eight-wk-old male BALB/C mice (BioLASCO Taiwan) were used for all animal experiments. JC (1×10^7), or CT26 (5×10^6˜1×10^7) cancer cells were inoculated by s.c. into the right flank of each mouse. Tumors were allowed to grow for 11 d (tumor size about 200-300 mm^3) before randomization and treatment. CT26-bearing and JC-bearing mice were given 10 or 2.5 mg/kg of anti-IgG, anti-PD-1 and/or anti-PD-L1 and anti-CTLA-4 (2.5 mg/kg) antibodies i.p. on days 11, 14, 17, 20, 23, and 26 post-tumor implantation, and all antibodies were diluted to appropriate concentrations in 100 μL of sterile PBS (pH 7.4) (Invitrogen Life Technologies). Celecoxib, chidamide, metformin, mocetinostat, entinostat, aspirin, and ibuprofen treatments were administrated orally on day 11 post-tumor implantation. Daily treatment with celecoxib (12.5, 25.0, and 50 mg/kg) or metformin (100 or 200 mg/kg) was performed from days 11 to 26. Chidamide was administered to treat tumor bearing mice at doses of 6.25, 12.5, 25, and 50 mg/kg or as a single dose. Chidamide was orally administered daily from days 11 to 26. Entinostat was orally administered at a dose of 20 mg/kg every two days from days 11 to 25. Mocetinostat was orally administered at a dose of 30 mg/kg daily treatment from days 11 to 26. Aspirin and ibuprofen was orally administered at a dose of 50 mg/kg daily treatment from days 11 to 26. The anti-cancer activity was measured from the start of the treatment of tumor growth until the tumor volume reached 3,000 mm^3. Tumor volume was calculated as length×width^2×0.5.
# To understand the anti-cancer activity of anti-PD-1 antibody on the CT-26 colon cancer cell -bearing BALB/c mice, the anti-PD-1 antibody was administered into CT26-bearing mice at 10 mg/kg of anti-PD-1 and/or anti-IgG antibodies i.p. on days 11, 14, 17, 20, 23, and 26 of post tumor implantation. […] The response rate was evaluated by several assays.
smiles,measurement,setting,value
CN(C)C(=N)N=C(N)N [metformin],tumor growth inhibition / anti-cancer activity,FIG. 2A/2B,markedly inhibited
same,mice with PD,"FIG. 2B, entinostat 20 mg/kg",five
same,mice with SD,"FIG. 2B, entinostat 20 mg/kg",one

# Reference: patent US11840570B2, “Pharmaceutical combination and method for regulation of tumor microenvironment and immunotherapy” (Great Novel Therapeutics Biotech & Medicals Corporation, priority 2018, dated 2023)
